The values below come from patent US8722662B2, “Heterocyclic compounds” (Takeda Pharmaceutical Company Limited, priority 2010, dated 2014).

Counter-ions that a name gives are not always drawn.

In one assay the test system is SD female rats. The experiment in a line: Measurement of urethral resistance increasing effect (leak point pressure), intravenous administration. It is filed as in vivo. Conditions: rat, 0.3 mg/kg and 1.0 mg/kg, 10 min after administration, compared to vehicle (Williams' test). Here is the method:
Experimental Example 4 Measurement of Urethral Resistance Increasing Effect
The urethral resistance increasing effect in rat was measured by a modified method of Matsumoto et al. (WO2009/063992) as follows. That is, SD female rats (CLEA Japan, Inc.) were anesthetized with isoflurane (1.0%; Abbott), and the spinal cord was transected at Th8-9 to avoid the voiding reflex. After laparotomy, an intravesical pressure measurement catheter and a saline infusion catheter (PE-100; Clay Adams) were inserted into the bladder. Thereafter, the abdomen of the rat was closed with aronalpha A “Sankyo” (Daiichi Sankyo). […] The intravesical pressure measurement catheter was connected to a computer via a pressure transducer (REF685640; Nihon Koden), an amplifier (RPM-6008M; Nihon Koden), and a multi-channel data analyzer (MP150; Biopack), and changes in the intravesical pressure were recorded on a hard disc at a frequency of 100 samples/sec. […] The LPP value (Pre value) was measured, a drug was intravenously administered, and the measurement of LPP value (Post value) was again started 10 min after administration. […]
The compound of Example 6 (0.3 mg/kg), the compound of Example 6 (1.0 mg/kg) and the vehicle were administered to the rats, and the urethral resistance increasing effect was measured by the aforementioned method.

The target in assay [1] is T1, human serotonin transporter (Homo sapiens, UniProt P31645).
T1 construct: expressed in transfected cells
The experiment in a line: Inhibitory action on human serotonin transporter ([3H]-5-hydroxytryptamine uptake in CHO cells). It is filed as cell-based. Particulars: relative to inhibitory activity of 10 μM Paroxetine as 100%, read-out: inhibitory rate (%). From the text: (2) Preparation of Human Monoamine Expressing Cell
(§1) Human serotonin transporter cDNA was amplified from human brain cDNA library by PCR, and inserted into pCRII-TOPO vector (manufactured by Invitrogen). The base sequence was confirmed and modified, and subcloned to pcDNA3.1 vector (manufactured by Invitrogen), whereby a human serotonin transporter expression plasmid was constructed. Human norepinephrine transporter cDNA was purchased from Invitrogen, and the base sequence was confirm and modified, and subcloned to pcDNA3.1 vector, whereby a human norepinephrine transporter expression plasmid was constructed. […]
The cultured cells that reached almost confluent were rinsed with PBS (Invitrogen), detached with Trypsin/EDTA (Invitrogen), and collected by a centrifugal operation. The obtained cells were counted, and diluted to 3×10^5 cells per 1 mL medium, the mixture was dispensed to a 96 well white plate (Corning) at 100 μL per well, and cultured overnight in a CO2 incubator.
(§2) Then, an assay buffer (126 mM NaCl, 4.95 mM KCl, 1.26 mM KH2PO4, 1.26 mM MgSO4, 10 mM HEPES, 2.32 mM CaCl2, 5.52 mM Glucose, 0.5% BSA) was prepared, the medium in the cell plate was removed and the assay buffer was added by 80 μL. […] The radioactivity was measured by TopCount (PerkinElmer). […]

Assay [2] addresses human norepinephrine transporter (Homo sapiens, UniProt P23975). The experiment in a line: Inhibitory action on human norepinephrine transporter ([3H]-norepinephrine uptake in CHO cells). Particulars: relative to inhibitory activity of 10 μM DMI as 100%, read-out: inhibitory rate (%). It is filed as cell-based.
Excerpt: as §1
The cultured cells that reached almost confluent were rinsed with PBS (Invitrogen), detached with Trypsin/EDTA (Invitrogen), and collected by a centrifugal operation. The obtained cells were counted, and diluted to 3×10^5 cells per 1 mL medium, and the mixture was dispensed to a 96 well white plate (Corning) at 100 μL per well, and cultured overnight in a CO2 incubator.
as §2

In assay [3] the target is T2, human dopamine transporter (Homo sapiens, UniProt Q01959).
T2 construct: expressed in transfected cells
The experiment in a line: Inhibitory action on human dopamine transporter ([3H]-dopamine uptake in CHO cells). Conditions: relative to inhibitory activity of 100 μM Nomifensine as 100%, read-out: inhibitory rate (%). In kind it is cell-based. From the text:
(1) Construction of Human Dopamine Transporter Expression Plasmid
SRα promoter contained in pTB1411 described in JP-A-H5-076385 was cleaved with restriction enzyme HindIII (manufactured by TAKARA BIO INC.), blunt-ended, further cleaved with restriction enzyme EcoRI (manufactured by TAKARA BIO INC.), and fragmented. On the other hand, pCI vector was cleaved with restriction enzyme BglII (manufactured by TAKARA BIO INC.), blunt-ended with T4 DNA polymerase, and further cleaved with restriction enzyme EcoRI (manufactured by TAKARA BIO INC.). Into this site was inserted an SRα promoter fragment to give pCI-SRa. […]
One day before the assay, the cultured cells that reached almost confluent were rinsed with PBS (Invitrogen), detached with Trypsin/EDTA (Invitrogen), and collected by a centrifugal operation. The obtained cells were counted, and diluted to 3×10^5 cells per 1 mL medium, and the mixture was dispensed to a 96 well white plate (Corning) at 100 μL per well, and cultured overnight in a CO2 incubator.
On the day of the test, an assay buffer (126 mM NaCl, 4.95 mM KCl, 1.26 mM KH2PO4, 1.26 mM MgSO4, 10 mM HEPES, 2.32 mM CaCl2, 5.52 mM Glucose, 0.5% BSA) was prepared, the medium in the cell plate was removed and the assay buffer was added by 80 μL. […] The radioactivity was measured by TopCount (PerkinElmer). […]

T1 sequence (P31645 whole entry): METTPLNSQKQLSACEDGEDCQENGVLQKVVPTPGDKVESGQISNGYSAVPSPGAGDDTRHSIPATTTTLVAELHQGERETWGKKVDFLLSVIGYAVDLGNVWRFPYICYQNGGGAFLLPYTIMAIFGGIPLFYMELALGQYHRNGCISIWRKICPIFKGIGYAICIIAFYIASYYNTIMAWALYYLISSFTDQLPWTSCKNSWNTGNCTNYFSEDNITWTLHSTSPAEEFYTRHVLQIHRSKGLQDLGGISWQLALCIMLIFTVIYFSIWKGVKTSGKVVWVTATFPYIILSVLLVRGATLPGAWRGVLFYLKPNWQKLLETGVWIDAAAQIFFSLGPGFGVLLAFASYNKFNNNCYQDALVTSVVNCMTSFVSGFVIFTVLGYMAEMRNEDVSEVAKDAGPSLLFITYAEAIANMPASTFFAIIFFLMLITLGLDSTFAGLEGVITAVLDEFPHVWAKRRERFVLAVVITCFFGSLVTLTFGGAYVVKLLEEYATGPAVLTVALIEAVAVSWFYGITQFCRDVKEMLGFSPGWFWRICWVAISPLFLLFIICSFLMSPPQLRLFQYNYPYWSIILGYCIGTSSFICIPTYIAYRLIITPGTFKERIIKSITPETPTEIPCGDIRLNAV
T2 sequence (Q01959 whole entry): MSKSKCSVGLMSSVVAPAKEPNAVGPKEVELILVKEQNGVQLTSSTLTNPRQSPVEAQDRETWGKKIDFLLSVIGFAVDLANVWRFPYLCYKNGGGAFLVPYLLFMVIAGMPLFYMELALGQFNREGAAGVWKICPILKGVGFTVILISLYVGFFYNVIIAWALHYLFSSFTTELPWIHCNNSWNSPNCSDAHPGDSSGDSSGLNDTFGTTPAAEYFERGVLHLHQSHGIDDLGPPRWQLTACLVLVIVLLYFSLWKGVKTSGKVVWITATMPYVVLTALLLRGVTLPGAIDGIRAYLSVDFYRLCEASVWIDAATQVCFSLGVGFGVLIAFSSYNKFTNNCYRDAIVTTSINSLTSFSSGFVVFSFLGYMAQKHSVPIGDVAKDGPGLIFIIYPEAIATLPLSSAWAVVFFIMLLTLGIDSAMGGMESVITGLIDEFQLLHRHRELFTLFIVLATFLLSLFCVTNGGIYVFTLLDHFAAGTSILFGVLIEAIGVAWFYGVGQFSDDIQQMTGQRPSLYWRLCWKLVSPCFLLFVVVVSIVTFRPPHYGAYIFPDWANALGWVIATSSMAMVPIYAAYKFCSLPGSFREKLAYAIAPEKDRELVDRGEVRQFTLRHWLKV
Chain of human norepinephrine transporter (P23975 whole entry): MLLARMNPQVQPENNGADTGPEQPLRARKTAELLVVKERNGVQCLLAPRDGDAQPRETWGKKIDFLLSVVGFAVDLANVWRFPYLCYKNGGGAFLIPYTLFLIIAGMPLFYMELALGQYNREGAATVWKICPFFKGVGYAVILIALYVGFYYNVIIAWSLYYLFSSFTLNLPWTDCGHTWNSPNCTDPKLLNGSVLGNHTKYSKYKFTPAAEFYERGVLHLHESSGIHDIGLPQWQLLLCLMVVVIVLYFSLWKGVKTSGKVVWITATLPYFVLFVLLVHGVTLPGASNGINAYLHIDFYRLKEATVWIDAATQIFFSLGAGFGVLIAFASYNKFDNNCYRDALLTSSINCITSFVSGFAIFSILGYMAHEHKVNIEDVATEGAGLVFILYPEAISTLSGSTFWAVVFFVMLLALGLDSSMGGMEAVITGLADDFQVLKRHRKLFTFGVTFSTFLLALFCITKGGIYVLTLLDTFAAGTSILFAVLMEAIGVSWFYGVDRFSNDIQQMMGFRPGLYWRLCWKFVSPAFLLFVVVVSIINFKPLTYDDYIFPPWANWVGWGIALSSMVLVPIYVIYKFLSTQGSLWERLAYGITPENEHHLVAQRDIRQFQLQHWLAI

In the case of `CC(=O)NC[C@H]1CNCCO[C@@H]1c1ccc(Cl)c(Cl)c1` (racemic) [Example 6, N-{[(6RS,7SR)-7-(3,4-dichlorophenyl)-1,4-oxazepan-6-yl]methyl}acetamide monohydrochloride], the “urethral resistance increasing effect (LPP Post value minus Pre value)” value with SD female rats is “dose-dependent and significant urethral resistance increasing effect”.
For `OC[C@H]1NCCOC[C@@H]1c1ccc(Cl)c(Cl)c1` (racemic) [Example 14, [(5RS,6SR)-6-(3,4-dichlorophenyl)-1,4-oxazepan-5-yl]methanol monohydrochloride], the figures for the inhibition at 1 µM in assay [1] (compound 1 μM), in assay [2] (compound 1 μM) and in assay [3] (compound 1 μM) were 31%, 98% and 87%, respectively. The inhibition at 10 µM is 79% in assay [1] (compound 10 μM, CHO cells expressing human serotonin transporter); 100% in assay [2] (compound 10 μM); 99% in assay [3] (compound 10 μM).
